Results taken from patent publication US11352315B2, “Compositions and methods comprising a triaryl polyamine” (Curza Global, LLC, priority 2017, dated 2022).
Converted amounts (≈) assume the structure as drawn.

Assays:
MRSA [1] = assay: MIC analysis; type: cell-based; conditions: Staphylococcus aureus, 24 hours
Procedure: (§1) A clinical strain of MRSA, isolated from a patient who underwent arthroscopic knee surgery and characterized by ARUP Laboratories, Salt Lake City, Utah, was used for this study in addition to Pseudomonas aeruginosa ATCC 27853 and Alcanivorax borkumensis ATCC 700651. P. aeruginosa was resuspended in BHI broth, grown overnight at 37° C. and transferred to fresh BHI with 30% glycerol for storage at −80° C. The MRSA isolate was likewise stored in BHI with 30% glycerol at −80° C. […] Before performing MIC analysis and biofilm experiments, the frozen stocks of MRSA and P. aeruginosa were streaked onto Columbia blood agar plates and grown overnight at 37° C. A. borkumensis ATCC 700651 was resuspended from a lyophilized pellet into marine broth, grown overnight at 30° C. and passaged on marine agar plates prior to experimentation.
(§2) To determine the MIC of polyamine compounds, the protocol described herein was used.
(§3) In brief, a 0.5 McFarland of each bacterial isolate was made. A 0.5 McFarland is a measure of turbidity in a liquid sample that contains approximately 1×10^^8 CFU/mL. The 0.5 McFarland standard was diluted in cation adjusted Mueller Hinton Broth (CAMHB), and 50 μL of broth were added to a well of a 96-well plate. In addition, 50 μL of CAMHB that contained a desired concentration of antimicrobial were also added to the well for a final volume of 100 μL and a final concentration of approximately 5×10^4 CFU/well (which equated to approximately 5×10^5 CFU/mL). Each well contained a desired amount of polyamine compound in order to experimentally determine the MIC. Each 96-well plate was incubated at 37° C. for 24 hours. The contents of each well were plated on tryptic soy agar (TSA). TSA plates were incubated for 37° C. for 24 hours after which the number of CFU were counted and used to calculate the CFU/mL that remained after exposure to varying concentrations of compound. This procedure was repeated n=8 times for each concentration of antimicrobial.

P. aeruginosa [2] = assay: MIC analysis; type: cell-based; conditions: Pseudomonas aeruginosa, 24 hours
Procedure: as §1, §2, §3

A. baumannii [3] = assay: MIC analysis; type: cell-based; conditions: Acinetobacter baumannii, 24 hours
Procedure: as §2, §3

A. baumannii [4] = assay: MBEC analysis, MBEC Inoculation Tray (column headed MBC); type: cell-based; conditions: Acinetobacter baumannii, 24 hours
From the text: (§4) To determine the MBEC of each polyamine compound, the MBEC Inoculation Tray by Innovotech, formerly known as the Calgary biofilm device, was used. Within this device, biofilms grow on the surface of polystyrene pegs, 96 of which are attached to a lid. These pegs are inserted into a flat bottom 96-well plate. In this instance, the MBEC of a molecule was defined as the concentration of compound (in μg/mL) required to reduce 10^5 or 10^6 CFU/peg (biofilm levels varied by isolate) to 10^2 CFU/peg in a 24-hour period.
(§5) Following the manufacturer's guidelines, biofilms were grown on the surface of each peg by first making a 0.5 McFarland of each isolate. The 0.5 McFarland was diluted 1:100 in CAMHB. Into each well of a flat bottom 96-well plate, 150 μL of broth were pipetted. The plate was shaken at 100 rpm for 24 hours (P. aeruginosa and A. baumannii) or 48 hours (MRSA). The pegs were then placed into a separate flat bottom 96-well plate for 10 seconds with 200 μL of phosphate buffered saline (PBS) in each well to remove nonadherent cells. The lid was then placed into a 96-well plate that contained varying concentrations of antimicrobial with 200 μL per well. The plate was incubated for 24 hours at 37° C. after which time 100 μL of broth were plated on TSA. TSA plates were incubated 24 hours at 37° C. and the number of CFU counted to calculate the CFU/peg. In this instance, the MBEC was defined as the concentration of antimicrobial required to reduce 10^5 or 10^6 CFU/peg to 10^2 CFU/peg in a 24 hour period.

MRSA [5] = assay: as above; type: cell-based; conditions: Staphylococcus aureus, 24 hours
From the text: as §4, §5

P. aeruginosa [6] = assay: as above; type: cell-based; conditions: Pseudomonas aeruginosa, 24 hours
From the text: as §4, §5

MRSA [7] = assay: EBEC analysis, high number biofilms on PEEK membranes; type: cell-based, Staphylococcus aureus; conditions: 24 hours
Procedure: (§6) To determine the efficacy of polyamine compounds against high number biofilms, biofilms were grown on the surface of polyetheretherketone (PEEK) membranes using a membrane biofilm reactor. This reactor was similar to the CDC biofilm reactor, but rather than growing biofilms on coupon surfaces, the reactor was modified to hold PEEK membranes. In short, to grow biofilms within this system, 500 mL of brain heart infusion (BHI) broth were inoculated with 1 mL of a 0.5 McFarland. The reactor was placed on a hot plate set at 34° C. and the bacteria were grown under batch conditions for 24 hours.
(§7) A solution of 10% BHI was then flowed through the reactor at a rate of 6.94 mL/min for an additional 24 hours. PEEK membranes were then removed and placed into 2 mL of CAMHB that contained a desired concentration of polyamine compound or antibiotic. The EBEC was defined as the concentration of antimicrobial required to reduce a biofilm from approximately 10^9 CFU/PEEK membrane to approximately 10^2 CFU/PEEK membrane in a 24-hour period.

A. baumannii [8] = assay: as above; type: cell-based, Acinetobacter baumannii; conditions: 24 hours
Procedure: as §6, §7

A. baumannii [9] = assay: Wound healing study, porcine excision wound model (Example 3); type: in vivo, Acinetobacter baumannii; conditions: for CFU/g Tissue: necropsy at 28 days
Procedure: An IACUC-approved in vivo analysis utilized an excision wound model in swine. Up to 32 partial thickness wounds were created/animal using a 1 cm biopsy punch (FIG. 1A). Wounds were inoculated with ^˜1×10^8 colony forming units (CFU) of A. baumannii in the planktonic or biofilm phenotype. Well-established biofilms were grown on the surface of bio-absorbable collagen in a modified CDC biofilm reactor for 8 days (FIG. 1B). An n=8 wounds were used for each treatment group.
For the treatment groups, infection was allowed to establish in each wound for 5 days after which time treatment with an antimicrobial began. […] In a separate pig, wounds were inoculated as above and a combination of colistin/imipenem (2.5 mg/each) was administered IV for 14 days for comparison to the current clinical standard of care for A. baumannii. […] Swine were monitored for 28 days. Wound size was measured daily. Culture swabs were collected regularly. At the time of necropsy, a 5 mm biopsy punch was used to collect tissue and calculate CFU/g using standard microbiological procedure. ANOVA analysis was used to compare differences in data with alpha 0.05.

[10] = system: A. baumannii ATCC BAA 1605; assay: MIC testing against the planktonic phenotype (Example 5); type: cell-based; conditions: Acinetobacter baumannii, BAA1605, 24 hr at 37° C.
Procedure: (§8) The isolate was maintained on Columbia blood agar and passaged as necessary with overnight incubation at 37° C.
Minimum inhibitory concentration (MIC) testing against the planktonic phenotype was performed first. To do so, a modified protocol of the Clinical and Laboratory Standards Institute (CLSI) guideline M100 was used. In short, using a fresh overnight culture of bacteria, a 0.5 McFarland standard was made in PBS using a nephelometer, then diluted to achieve a concentration of ˜7.5×10^5 CFU/mL. A 96-well plate was set up such that a final volume of 100 μL was present in each well. Column 1 served as the negative control of growth (antibiotic only without bacteria added) and Column 11 served as the positive control of growth (bacteria only, no antibiotic).
Into columns 2-11, 50 μL of CAMHB were added to each well. […] The solution was mixed, then 50 μL were removed and added to wells of column 3. This 1:2 dilution process was continued through column 10. Lastly, into each well of columns 2-11, 50 μL of the prepared bacterial solution were added. […] The 96-well plate was covered with adhesive film and incubated 24 hr at 37° C. The concentration of antibiotic that inhibited pellet formation or turbidity was considered the MIC.

[11] = system: A. baumannii ATCC BAA 1605 biofilms; assay: Biofilm efficacy in CAMHB broth, CDC biofilm reactor (Example 5); type: cell-based, Acinetobacter baumannii; conditions: 24 hr
Procedure: as §8
Biofilms were grown on polycarbonate coupons in a CDC biofilm reactor following the manufacturer's recommendation. Once assembled and autoclaved, the reactor was inoculated. To do so, a fresh overnight culture of A. baumannii was used to make a 0.5 McFarland standard of the bacterial isolate (˜5×10^7 CFU/mL). One mL of the 0.5 McFarland solution was inoculated into 500 mL of BHI in the CDC biofilm reactor. The reactor was placed on a hot plate set at 34° C. and a baffle rotation of 130 rpm for 24 hr. After 24 hr batch growth, a continuous flow of 10% BHI was flowed through the reactor at ˜6.9 mL/min for an additional 168 hr (7 days).
A 100 μL aliquot of broth was removed and plated using a 10-fold dilution series in order to quantify the CFU/coupon that remained. Testing was performed with n=3 repeats per concentration. A baseline of growth was determined by quantifying n=3 coupons/reactor immediately following growth.

A. baumannii [12] = assay: In vivo efficacy, porcine excision wound model (Example 6); design: species or system Acinetobacter baumannii; conditions: for Last Day that A. baumannii was Detected in At Least One Wound by Culture Swab / Log10 Transformed CFU/g Tissue at Necropsy (Day 28) / Last Day that A. baumannii was Detected in At Least One Wound: pig
From the text: Four Yorkeshire pigs with weight in the range of approximately 40-50 kg were quarantined for a minimum of 7 days. Positive reinforcement (Swedish Fish®, marshmallows, Snickers® bars, fruit and/or other treats) was provided once daily to help the pigs become accustom to having their back manipulated—e.g., a back scratch with a soft brush—by a research team member. A custom-fit jacket was also placed on pigs during the acclimation period to allow them to become aware of the covering that would be on their body.
The night before a surgical procedure was to be performed, pigs were fasted. To perform surgery, pigs were anesthetized initially with a combination of tiletamine-zolazepam (Telazol®; 4.4 mg/kg), Ketamine (2.2 mg/kg) and Xylazine (2.2 mg/kg). Pigs were intubated, given isoflurane inhalant at 0.5-5.0%, transported to a surgical suite, placed in sternal recumbency and clipped/razor-shaved of hair in the region where excision wounds would be created. Pigs were rotated to dorsal recumbency and the jugular vein area was sterilely prepped using alternating betadine/isopropyl alcohol. Once prepped, the site was sterilely draped and a VAP was implanted. To do so, a ventral midline incision was made to isolate the jugular vein. A catheter was placed in the vein and secured. A second incision was made on the dorsal side of the neck and a tunnel created along the subcutaneous space from the second incision to the jugular vein. The catheter was passed through the tunnel. A VAP was anchored subdermally in the dorsal neck space with non-absorbable suture (e.g., Proline). The catheter was connected to the VAP and secured in the jugular vein. Both incision sites were closed using absorbable suture (e.g., Vicryl).
With a VAP in place, a pig was rotated to sternal recumbency. The back was sterilely prepped for surgery, then draped. Using a 1 cm biopsy punch, excision wounds were created with a separation of approximately 2 cm between each wound. Wounds were organized into three or four sections with n=8 wounds/section (see FIG. 5). To reduce bleeding during wound creation, wound beds were treated with μL quantities of dilute epinephrine (1 mg/mL) as needed by the surgeon. Sterile saline-soaked gauze sponges were placed on excised wounds to maintain moisture as additional wounds were created. Once created, wounds were inoculated with bacteria (with the exception of negative control wounds) in either the planktonic or biofilm phenotype (see FIG. 5).
For wounds inoculated with planktonic bacteria, 2-3 colonies from a fresh overnight culture of A. baumannii were adjusted to a turbidity of 10% (˜1×10^9 CFU/mL) in sterile PBS using a nephelometer. One hundred L were pipetted into wound beds on the left flank of an animal (see FIG. 5).
Biofilm inoculation was performed by first growing biofilms on absorbable collagen for a total of 192 hrs (8 days) as described and transported to the OR in approved containers. Once the excision wounds were created, biofilm-containing collagen coupons were aseptically placed into wounds (one coupon/wound) on the right flank of an animal (see FIG. 1). […] Following inoculation, tincture of benzoin was applied to the border of each wound section to help maintain bandage adherence. Wounds were bandaged with a non-stick Telfa pad and Tegaderm. A custom jacket was also placed to further protect bandaging. Pigs were recovered and allowed to eat and drink ad libitum.
All wounds were reinoculated with planktonic or biofilm bacteria once daily for 3 days following the surgical procedure (total of 4 inoculations). […] To perform the reinoculations, planktonic bacteria were made fresh each day.

P. aeruginosa [13] = assay: EBEC analysis, high number biofilms on PEEK membranes; type: cell-based, Pseudomonas aeruginosa; conditions: 24 hours
Procedure: as §6, §7

[14] = debrided wounds, biofilm phenotype
[15] = debrided wounds, planktonic phenotype
[16] = undebrided wounds, biofilm phenotype
[17] = undebrided wounds, planktonic phenotype

CCC(CC)CNCCCNCCCNCc1ccc(-c2cc(-c3ccc(CNCCCNCCCNCC(CC)CC)cc3)cc(C(C)(C)C)c2)cc1 [CZ-1-179, N^1,N^1′-((5′-(tert-butyl)-[1,1′:3′,1″-terphenyl]-4,4″-diyl)bis(methylene))bis(N^3-(3-((2-ethylbutyl)amino)propyl)propane-1,3-diamine)]
MIC (MRSA [1]): 0.5 µg/mL (≈ 0.675 µM) | MIC (P. aeruginosa [2]): 4 µg/mL (≈ 5.4 µM) | MIC (A. baumannii [3]): 2 µg/mL (≈ 2.7 µM) | MBC (A. baumannii [4]): 4 µg/mL (≈ 5.4 µM) | MBC (MRSA [5]): 1 µg/mL (≈ 1.35 µM) | MBC (P. aeruginosa [6]): 4 µg/mL (≈ 5.4 µM) | EBEC (MRSA [7]): 250 µg/mL | EBEC (A. baumannii [8]): 500 µg/mL | CFU/g Tissue (A. baumannii [9]; swine wounds inoculated with biofilm bacteria): 0.00 CFU/g Tissue | CFU/g Tissue (A. baumannii [9]; swine wounds inoculated with planktonic bacteria): 0.00 CFU/g Tissue | speed of eradication of A. baumannii (A. baumannii [9]; swine wounds, topical): faster than SSD | MIC [10]: 2 µg/mL (≈ 2.7 µM) | CFU/coupon remaining ([11]; 0.00125% (12.5 μg/mL)): ~9.2×10^5 CFU/coupon | log10 reduction of biofilm ([11]; 0.00125% (12.5 μg/mL)): ~2 log10 | CFU/coupon remaining ([11]; […] (25 μg/mL)): ~4.8×10^3 CFU/coupon | log10 reduction of biofilm ([11]; […] (25 μg/mL)): ~4 log10 | eradication of biofilms ([11]; concentrations from 2% (20 mg/mL) down to 0.005% (50 μg/mL), polycarbonate coupons): full eradication of biofilms | Day after which A. baumannii was no longer detected by culture (A. baumannii [12]; Pig 2 (topical agents only)): 6 days | A. baumannii by culture on Day 6 (A. baumannii [12]; Pig 4 (IV+topical products)): none of the wounds | Day on which healing was obvious (A. baumannii [12]; Pig 4 (IV+topical products)): ≤ 8 days | Day on which signs of infection resolved (A. baumannii [12]; Pig 4 (IV+topical products)): ≤ 6 days | Day on which wound contraction was notable (A. baumannii [12]; Pig 4 (IV+topical products), biofilm wounds): ≤ 7 days | Day on which wound contraction was notable (A. baumannii [12]; Pig 4 (IV+topical products), planktonic wounds): ≤ 7 days | reduction of bioburden (A. baumannii [12]; Pig 4, in combination with IV antibiotics): reduced completely within two weeks | days sooner signs of infection cleared than the host alone (A. baumannii [12]; pig wounds): 3 to 4 days | Last Day that A. baumannii was Detected in At Least One Wound by Culture Swab (A. baumannii [12]; [14]): 5 | Log10 Transformed CFU/g Tissue at Necropsy (Day 28) (A. baumannii [12]; [14]): 0 | Last Day that A. baumannii was Detected in At Least One Wound by Culture Swab (A. baumannii [12]; [15]): 5 | Log10 Transformed CFU/g Tissue at Necropsy (Day 28) (A. baumannii [12]; [15]): 0 | Last Day that A. baumannii was Detected in At Least One Wound (A. baumannii [12]; [16]): 5 | Log10 Transformed CFU/g Tissue at Necropsy (Day 28) (A. baumannii [12]; [16]): 0 | Last Day that A. baumannii was Detected in At Least One Wound (A. baumannii [12]; [17]): 5 | Log10 Transformed CFU/g Tissue at Necropsy (Day 28) (A. baumannii [12]; [17]): 0

CC(C)CCNCCCNCCCNCc1cccc(-c2cc(-c3cccc(CNCCCNCCCNCCC(C)C)c3)cc(C(C)(C)C)c2)c1 [CZ-1-182, N^1,N^1′-((5′-(tert-butyl)-[1,1′:3′,1″-terphenyl]-3,3″-diyl)bis(methylene))bis(N^3-(3-(isopentylamino)propyl)propane-1,3-diamine)]
MIC (MRSA [1]): 0.25 µg/mL (≈ 0.351 µM) | MIC (P. aeruginosa [2]): 4 µg/mL (≈ 5.61 µM) | MIC (A. baumannii [3]): 32 µg/mL (≈ 44.9 µM) | EBEC (MRSA [7]): 100 µg/mL | EBEC (P. aeruginosa [13]): 150 µg/mL | EBEC (A. baumannii [8]): 300 µg/mL
